Data reported in publication PMC6968775, “Assessment of contribution of BCRP to intestinal absorption of various drugs using portal‐systemic blood concentration difference model in mice” (Pharmacology Research & Perspectives, 2020).
Where “and” joins values, the source holds several entries; their conditions need not be identical. Identical values can stand only once. Counter-ions that a name gives are not always drawn.

How the values were obtained:
[1] = Pharmacokinetics after iv and oral administration, P‐S difference method, wild‐type mice; type: in vivo; conditions: for half-life / AUC(0-inf) / Cmax / Tmax: 1 mg/kg
Protocol: (§1) Male Mdr1a/1b(−/−) and Bcrp(−/−) mice, and WT mice of the same genetic background (FVB) were obtained from Taconic Farms (Germantown, NY, USA). […] Food and water were available ad libitum. All experiments were carried out in accordance with the principles and procedures outlined in the National Institutes of Health Guide for the Care and Use of Laboratory.
(§2) All the mice were fasted overnight with free access to tap water. In the intravenous administration studies, model compounds were administered via the tail vein at doses of 1 mg/kg (n = 3). Following administration, blood samples were collected from the abdominal vein of the anesthetized mice at 0.083, 0.17, 0.5, 1, 2, 4, and 8 hours. […] Following administration, blood samples were taken from the portal and abdominal veins of the anesthetized mice at 0.083, 0.17, 0.5, 1, 2, 4, and 8 hours. The plasma samples were separated by centrifugation at 14 000g for 10 minutes at 4°C and stored at −30°C until analysis.
(§3) After organic layer was evaporated at 60°C, the resultant residues were dissolved in a mobile phase. For the determination of topotecan and sulfasalazine, plasma samples were mixed with acetonitrile, centrifuged at 750 g for 10 minutes at 4°C, and the supernatants were collected. After the evaporation of the supernatants, the residues were dissolved in a mobile phase, and acidified with phosphoric acid for topotecan. All drugs were analyzed by HPLC system (Shimadzu LC‐10AS pump, Shimadzu SIL‐10A autosampler) equipped with a reverse‐phase column (COSMOSIL 5C18‐AR‐II, 3.5‐μm […], 4.6 × 150 mm).
(§4) Elimination rate constant (k e) was determined by the least squares regression analysis of plasma concentration vs time curve. Elimination half‐life (t 1/2) was calculated using Eq.1:(1) t1/2=ln2/ke
(§5) Area under plasma concentration‐time curve (AUC) and area under the first moment curve (AUMC) from time 0 to infinity were calculated by trapezoidal rule.
(§6) Absorption rate constant (k a) after oral administration was calculated by the nonlinear least squares fitting with program MULTI.12
(§7) BA was calculated by Eq.5:(7) BA=AUCoral/AUCiv×Doseiv/Doseoral×100 where AUCoral is AUC after oral administration. Doseiv and Doseoral are administered dose in the intravenous and oral administration study, respectively.
(§8) Hepatic availability (F h) was calculated by Eq.6:(8) Fh=F/Fa×Fg

[2] = Pharmacokinetics after iv and oral administration, P‐S difference method, Bcrp(−/−) mice; type: in vivo
Protocol: as §1, §2, §3, §4, §5, §6, §7, §8

[3] = Pharmacokinetics after iv and oral administration, P‐S difference method, Mdr1a/1b(−/−) mice; type: in vivo
Protocol: as §1, §2, §3, §4, §5, §6, §7, §8

[4] = Blood/plasma concentration ratio (R b) in fresh whole blood; type: in vitro ADME, FVB mice; conditions: fresh whole blood, FVB mouse whole blood, 37°C
Protocol: Similarly, the model compounds were added to plasma, and reference blood samples were obtained according to the same procedure. These concentrations of drugs in each sample were analyzed using HPLC (C B and C P, respectively). R b value was calculated by dividing C B by C P.

BCRP [5] = assay: Human AQBCRP estimated from the clinical data; type: in vivo
BCRP [6] = conditions: calculated from k a in WT, Bcrp(−/−) and Mdr1a/1b(−/−) mice (Eq. 9)
P‐gp [7] = system: P‐gp
P‐gp [8] = conditions: Caco‐2 permeability study; unpublished data; ref Fujita et al, manuscript in preparation; cited from earlier work
[9] = cited from earlier work
[10] = male, FVB (wild-type), mouse, portal vein plasma, po
[11] = male, FVB (wild-type), mouse, systemic plasma (abdominal vein), po
[12] = wild‐type mice, p.o. (ciprofloxacin 1, nitrofurantoin 2, topotecan 1, sulfasalazine 5 mg/kg)
[13] = Bcrp(−/−) mice, p.o. (ciprofloxacin 1, nitrofurantoin 2, topotecan 1, sulfasalazine 5 mg/kg)
[14] = male, Bcrp(−/−) (FVB background), mouse, portal vein plasma, po, 1 mg/kg
[15] = male, Bcrp(−/−) (FVB background), mouse, systemic plasma (abdominal vein), po, 1 mg/kg
[16] = Mdr1a/1b(−/−) mice, p.o. (ciprofloxacin 1, nitrofurantoin 2, topotecan 1, sulfasalazine 5 mg/kg)
[17] = male, Mdr1a/1b(−/−) (FVB background), mouse, portal vein plasma, po, 1 mg/kg
[18] = male, Mdr1a/1b(−/−) (FVB background), mouse, systemic plasma (abdominal vein), po, 1 mg/kg

CC[C@@]1(O)C(=O)OCc2c1cc1n(c2=O)Cc2cc3c(CN(C)C)c(O)ccc3nc2-1 [topotecan, Topotecan HCl]
k a, wt ([1]; Table 5 summary, WT mice, oral administration): 3.18 | (F a F g) wt ([1]; as fraction, WT mice, oral administration): 0.57 | clearance ([1]; male, FVB (wild-type), mouse, plasma (systemic, abdominal vein), wild‐type mice, iv 1 mg/kg, read-out: CL tot (converted)): 36.7 mL/min/kg | Vd ([1]; male, FVB (wild-type), mouse, plasma (systemic, abdominal vein), wild‐type mice, iv 1 mg/kg, read-out: Vdss): 2.59 L/kg | half-life ([1]; male, FVB (wild-type), mouse, plasma, iv, wild‐type mice, iv 1 mg/kg): 75.6 min | AUC(0-inf) ([1]; male, FVB (wild-type), mouse, plasma, iv, wild‐type mice, iv 1 mg/kg, read-out: AUC 0→∞): 0.994 µM·h | Cmax [1, 10]: 720 nM | Tmax [1, 10]: 4.8 min | AUC(0-inf) ([1]; male, FVB (wild-type), mouse, portal vein plasma, po, wild‐type mice, p.o. (ciprofloxacin 1, nitrofurantoin 2, topotecan 1, sulfasalazine 5 mg/kg), portal vein (pv) plasma, read-out: AUC 0→∞ (AUCpv)): 0.577 µM·h | Cmax [1, 11]: 218 nM | Tmax [1, 11]: 30 min | half-life ([1]; male, FVB (wild-type), mouse, systemic plasma (abdominal vein), po, wild‐type mice, p.o. (ciprofloxacin 1, nitrofurantoin 2, topotecan 1, sulfasalazine 5 mg/kg), systemic (sys) plasma): 62.4 min | AUC(0-inf) ([1]; male, FVB (wild-type), mouse, systemic plasma (abdominal vein), po, wild‐type mice, p.o. (ciprofloxacin 1, nitrofurantoin 2, topotecan 1, sulfasalazine 5 mg/kg), systemic (sys) plasma, read-out: AUC 0→∞ (AUCsys)): 0.37 µM·h | F h [1, 12]: 65.6% | k a [1, 12]: 3.18 h⁻¹ | F a F g ([1]; wild‐type mice, p.o. (ciprofloxacin 1, nitrofurantoin 2, topotecan 1, sulfasalazine 5 mg/kg), P‐S difference method): 57% and 56.8% | F h [2, 13]: 74.0% | k a [2, 13]: 5.18 h⁻¹ | BA ([2]; Bcrp(−/−) mice, p.o. (ciprofloxacin 1, nitrofurantoin 2, topotecan 1, sulfasalazine 5 mg/kg) vs iv 1 mg/kg): 76.3% | F a F g ([2]; Bcrp(−/−) mice, p.o. (ciprofloxacin 1, nitrofurantoin 2, topotecan 1, sulfasalazine 5 mg/kg), P‐S difference method): 103% | k a, bcrp ([2]; Table 5 summary, Bcrp(−/−) mice, oral administration): 5.18 | (F a F g)bcrp ([2]; as fraction, Bcrp(−/−) mice, oral administration): 1.03 | half-life ([2]; male, Bcrp(−/−) (FVB background), mouse, plasma, iv, 1 mg/kg, Bcrp(−/−) mice, iv 1 mg/kg): 89.4 min | Cmax [2, 14]: 855 nM | Tmax [2, 14]: 4.8 min | Cmax [2, 15]: 476 nM | Tmax [2, 15]: 10.2 min | AUC(0-inf) ([2]; male, FVB Bcrp(−/−), mouse, plasma (systemic, abdominal vein), iv, 1 mg/kg, Bcrp(−/−) mice, iv 1 mg/kg, read-out: AUC 0→∞): 1.49 µM·h | clearance ([2]; male, FVB Bcrp(−/−), mouse, plasma (systemic, abdominal vein), Bcrp(−/−) mice, iv 1 mg/kg, read-out: CL tot (converted)): 24.5 mL/min/kg | Vd ([2]; male, FVB Bcrp(−/−), mouse, plasma (systemic, abdominal vein), Bcrp(−/−) mice, iv 1 mg/kg, read-out: Vdss): 2.21 L/kg | AUC(0-inf) ([2]; male, FVB Bcrp(−/−), mouse, portal vein plasma, po, 1 mg/kg, Bcrp(−/−) mice, p.o. (ciprofloxacin 1, nitrofurantoin 2, topotecan 1, sulfasalazine 5 mg/kg), portal vein (pv) plasma, read-out: AUC 0→∞ (AUCpv)): 1.51 µM·h | AUC(0-inf) ([2]; male, FVB Bcrp(−/−), mouse, portal vein plasma, po, Bcrp(−/−) mice, p.o. (ciprofloxacin 1, nitrofurantoin 2, topotecan 1, sulfasalazine 5 mg/kg), portal vein (pv) plasma, read-out: AUC 0→∞ (AUCpv)): 1.51 µM·h | half-life ([2]; male, FVB Bcrp(−/−), mouse, systemic plasma (abdominal vein), po, 1 mg/kg, Bcrp(−/−) mice, p.o. (ciprofloxacin 1, nitrofurantoin 2, topotecan 1, sulfasalazine 5 mg/kg), systemic (sys) plasma): 88.2 min | AUC(0-inf) ([2]; male, FVB Bcrp(−/−), mouse, systemic plasma (abdominal vein), po, 1 mg/kg, Bcrp(−/−) mice, p.o. (ciprofloxacin 1, nitrofurantoin 2, topotecan 1, sulfasalazine 5 mg/kg), systemic (sys) plasma, read-out: AUC 0→∞ (AUCsys)): 1.14 µM·h | AUC(0-inf) ([2]; male, FVB Bcrp(−/−), mouse, systemic plasma (abdominal vein), po, Bcrp(−/−) mice, p.o. (ciprofloxacin 1, nitrofurantoin 2, topotecan 1, sulfasalazine 5 mg/kg), systemic (sys) plasma, read-out: AUC 0→∞ (AUCsys)): 1.14 µM·h | AUC pv and AUC sys after oral administration, Bcrp(−/−) mice vs WT mice ([2]; oral administration): approximately 3 fold | F h [3, 16]: 54.8% | k a [3, 16]: 3.68 h⁻¹ | BA ([3]; Mdr1a/1b(−/−) mice, p.o. (ciprofloxacin 1, nitrofurantoin 2, topotecan 1, sulfasalazine 5 mg/kg) vs iv 1 mg/kg): 34.9% | F a F g ([3]; Mdr1a/1b(−/−) mice, p.o. (ciprofloxacin 1, nitrofurantoin 2, topotecan 1, sulfasalazine 5 mg/kg), P‐S difference method): 63.8% | k a, P‐gp ([3]; Table 5 summary, Mdr1a/1b(−/−) mice, oral administration): 3.68 | (F a F g)P‐gp ([3]; as fraction, Mdr1a/1b(−/−) mice, oral administration): 0.64 | clearance ([3]; male, FVB Mdr1a/1b(−/−), mouse, plasma (systemic, abdominal vein), Mdr1a/1b(−/−) mice, iv 1 mg/kg, read-out: CL tot (converted)): 35.5 mL/min/kg | Vd ([3]; male, FVB Mdr1a/1b(−/−), mouse, plasma (systemic, abdominal vein), Mdr1a/1b(−/−) mice, iv 1 mg/kg, read-out: Vdss): 2.19 L/kg | AUC(0-inf) ([3]; male, FVB Mdr1a/1b(−/−), mouse, portal vein plasma, po, 1 mg/kg, read-out: AUC 0→∞ (AUCpv)): 0.589 µM·h | AUC(0-inf) ([3]; male, FVB Mdr1a/1b(−/−), mouse, systemic plasma (abdominal vein), po, 1 mg/kg, read-out: AUC 0→∞ (AUCsys)): 0.358 µM·h | half-life ([3]; male, Mdr1a/1b(−/−) (FVB background), mouse, plasma, Mdr1a/1b(−/−) mice, iv 1 mg/kg): 64.8 min | AUC(0-inf) ([3]; male, Mdr1a/1b(−/−) (FVB background), mouse, plasma, Mdr1a/1b(−/−) mice, iv 1 mg/kg, read-out: AUC 0→∞): 1.02 µM·h | Cmax [3, 17]: 664 nM | Tmax [3, 17]: 4.8 min | Cmax [3, 18]: 242 nM | Tmax [3, 18]: 10.2 min | half-life [3, 18]: 73.8 min | blood plasma ratio at 15 min, 1 µg/mL [4]: 0.94 ± 0.05 | human AQBCRP (BCRP [5]): 0.58 | AQ bcrp (in vivo) (BCRP [6]): 0.35 | AQ P‐gp (in vivo) (P‐gp [7]; calculated from k a in WT, Bcrp(−/−) and Mdr1a/1b(−/−) mice (Eq. 10)): 0.08 | R P‐gp (rate of P‐gp contribution) (P‐gp [7]; in vivo (mice), calculated from F a F g in WT, Bcrp(−/−) and Mdr1a/1b(−/−) mice (Eq. 12)): 0.06 | AQp‐gp in vitro (Caco‐2) (P‐gp [8]): 0.14 | BA after oral administration ([9]; human clinical studies): about 40% | human BA ([9]; human): 40% | oral BA, patients heterozygous variant for the BCRP SNP vs normal BCRP ([9]; human): 1.3 fold | BA when GF120918 is orally coadministered ([9]; human, with GF120918 (BCRP inhibitor)): 100%
